In PubChem BioAssay (NCI) one finds TGI data, which are given here for 9 compounds.

One may read the TGI as the concentration at which net growth stops. The low end stands for greater sensitivity of the cells, the high end for lower sensitivity of the cells.

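Interpolation was linear, between the two tested concentrations surrounding the appropriate level; five concentrations were tested over 48 hours in 96-well plates. TGI is the concentration that stops growth completely.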

Test systems include SK-MEL-28 melanoma; TK-10 renal; MDA-N; HOP-62 NSCLC; UACC-62 melanoma; SNB-75 CNS; KM12 colon; SN12C renal; EKVX NSCLC; SNB-19 CNS; DU-145 prostate; NCI-H460 lung; HL-60(TB) leukemia; OVCAR-4 ovarian; SF-295 CNS; A498 renal; CAKI-1 renal.
Common to all, as to test: DTP human tumour cell line panel, 48 h

Consider `CCOc1ncn(-c2ccc(NC(=S)NC34CC5CC(CC(C5)C3)C4)cc2)n1`, for which the TGI is over 100 µM with SK-MEL-28 melanoma; over 100 µM with TK-10 renal; over 100 µM in the experiment with MDA-N; over 100 µM in the experiment with HOP-62 NSCLC; over 100 µM with UACC-62 melanoma; 76.2 µM in the experiment on SNB-75 CNS. In addition, the TGI in the experiment on KM12 colon, with SN12C renal, with EKVX NSCLC, with SNB-19 CNS, in the experiment on DU-145 prostate and in the experiment with NCI-H460 lung was over 100 µM throughout. Also, the TGI in the experiment with HL-60(TB) leukemia, in the experiment with OVCAR-4 ovarian and in the experiment with SF-295 CNS was over 100 µM throughout.
On to `C[n+]1cccc2ccc(OC(=O)c3ccccc3)cc21`, for which the TGI in the experiment on A498 renal, with TK-10 renal, with MDA-N, in the experiment with HOP-62 NSCLC, in the experiment with UACC-62 melanoma and with CAKI-1 renal was over 100 µM each time. Moreover, the TGI with SNB-75 CNS, with KM12 colon, with SN12C renal, in the experiment on EKVX NSCLC, in the experiment on SNB-19 CNS and in the experiment with DU-145 prostate was over 100 µM throughout. Further, the TGI in the experiment with OVCAR-4 ovarian and in the experiment with SF-295 CNS was over 100 µM each time.
With `NNCCc1n[nH]c(=O)n1N`, the TGI in the experiment on SK-MEL-28 melanoma, in the experiment with MDA-N, in the experiment on HOP-62 NSCLC, in the experiment with UACC-62 melanoma, with CAKI-1 renal and in the experiment with SNB-75 CNS was over 100 µM each time. The TGI with KM12 colon, in the experiment with SN12C renal, in the experiment on EKVX NSCLC, in the experiment with SNB-19 CNS, in the experiment with DU-145 prostate and in the experiment with NCI-H460 lung was over 100 µM in each case. Moreover, the TGI in the experiment on HL-60(TB) leukemia, in the experiment with OVCAR-4 ovarian and with SF-295 CNS was over 100 µM throughout.
For the compound `CC(=O)O[C@H]1CCn2c3c(c(C)c21)C(=O)C(N1CC1)=C(C)C3=O`, the TGI in the experiment with TK-10 renal, with MDA-N, in the experiment on HOP-62 NSCLC, in the experiment with UACC-62 melanoma, in the experiment on CAKI-1 renal and in the experiment on SNB-75 CNS was over 10 µM throughout. In addition, the TGI in the experiment on KM12 colon, in the experiment with SN12C renal, with EKVX NSCLC, in the experiment with SNB-19 CNS, in the experiment on DU-145 prostate and with NCI-H460 lung was over 10 µM throughout. In addition, the TGI with HL-60(TB) leukemia, with OVCAR-4 ovarian and in the experiment with SF-295 CNS was over 10 µM in each case.
`Clc1nc(NCCc2ccccc2)c2ncn(-c3ccccc3)c2n1`: the TGI in the experiment on SK-MEL-28 melanoma worked out at 94.1 µM; with A498 renal it was 41.9 µM; in the experiment with TK-10 renal it was 71.2 µM; with MDA-N, 40.2 µM; in the experiment with HOP-62 NSCLC, 67.2 µM; in the experiment on UACC-62 melanoma it was 56.7 µM. The TGI in the experiment with CAKI-1 renal was 34 µM; with SNB-75 CNS, 90.4 µM; in the experiment on KM12 colon, 51.3 µM; in the experiment on SN12C renal, 85.4 µM; in the experiment on EKVX NSCLC it was 68.3 µM; in the experiment on SNB-19 CNS it was over 100 µM. Further, the TGI in the experiment with DU-145 prostate is 83.4 µM; in the experiment with NCI-H460 lung, 33.7 µM; with OVCAR-4 ovarian it was 42.1 µM; with SF-295 CNS it was over 100 µM.
As for `O=C1C(=Nc2ccccc2)Oc2cc(O)ccc21`, the TGI in the experiment with SK-MEL-28 melanoma, in the experiment on A498 renal, with TK-10 renal, in the experiment with MDA-N, in the experiment on HOP-62 NSCLC and with UACC-62 melanoma was over 100 µM each time. Moreover, the TGI with CAKI-1 renal, with SNB-75 CNS, in the experiment with KM12 colon, in the experiment on SN12C renal, in the experiment with EKVX NSCLC and with SNB-19 CNS was over 100 µM throughout. Besides, the TGI in the experiment with DU-145 prostate, in the experiment with NCI-H460 lung, in the experiment on OVCAR-4 ovarian and in the experiment on SF-295 CNS was over 100 µM throughout.
`O=S(=O)(O)c1ccc2c(N=Nc3ccc(F)cc3)c(O)c(S(=O)(=O)O)cc2c1`: the TGI in the experiment on SK-MEL-28 melanoma, in the experiment with A498 renal, in the experiment on TK-10 renal, with MDA-N, in the experiment with HOP-62 NSCLC and in the experiment on UACC-62 melanoma was over 100 µM throughout. Moreover, the TGI in the experiment on CAKI-1 renal, with SNB-75 CNS, with KM12 colon, in the experiment on SN12C renal, in the experiment on EKVX NSCLC and with SNB-19 CNS was over 100 µM in each case. The TGI in the experiment on DU-145 prostate, in the experiment on OVCAR-4 ovarian and in the experiment on SF-295 CNS was over 100 µM throughout.
For `Cn1c(=O)c2c(ncn2CCCCOc2ccc3c(c2)[n+]([O-])nc(N)[n+]3[O-])n(C)c1=O`, the TGI in the experiment on SK-MEL-28 melanoma is over 100 µM; in the experiment with TK-10 renal, over 100 µM; in the experiment on MDA-N it was over 100 µM; in the experiment on HOP-62 NSCLC, over 100 µM; in the experiment on UACC-62 melanoma, 42 µM; in the experiment on CAKI-1 renal it was over 100 µM. Further, the total growth inhibition concentration (TGI) is 90 µM with SNB-75 CNS; over 100 µM in the experiment with KM12 colon; over 100 µM in the experiment with SN12C renal; over 100 µM in the experiment with EKVX NSCLC; over 100 µM in the experiment with SNB-19 CNS; over 100 µM in the experiment on DU-145 prostate. Further, the TGI with NCI-H460 lung, in the experiment with HL-60(TB) leukemia, with OVCAR-4 ovarian and in the experiment with SF-295 CNS was over 100 µM each time.
For `O=C1CCCCC/C1=C\c1ccc(Cl)cc1`, the TGI in the experiment with SK-MEL-28 melanoma, in the experiment with A498 renal, in the experiment with TK-10 renal, in the experiment with MDA-N, in the experiment on HOP-62 NSCLC and with UACC-62 melanoma was over 100 µM in each case. Besides, the TGI in the experiment with CAKI-1 renal was over 100 µM; with SNB-75 CNS, 81.3 µM; in the experiment with KM12 colon, 51.4 µM; with SN12C renal, over 100 µM; in the experiment on EKVX NSCLC it was over 100 µM; with SNB-19 CNS, over 100 µM. Besides, the TGI with DU-145 prostate is over 100 µM; in the experiment on NCI-H460 lung, over 100 µM; in the experiment with OVCAR-4 ovarian it was 84.9 µM; in the experiment with SF-295 CNS it was 56.6 µM.
